Measured values published in US8809341B2, “2,4-pyrimidinediamine compounds and uses as anti-proliferative agents” (Rigel Pharmaceuticals, Inc., priority 2003, dated 2014).
pIC50: −log10 of the molar value. Values belong to the compound of their own block, whether it stands above or below them.

Experiments:
H1299 cells = experiment: in vitro antiproliferation assay, H1299 (lung); type: cell-based
In short: (§1)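 Standard in vitro antiproliferation assays on tumour cell lines, including A549 and H1299 (both lung); IC50 values determined.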

A549 cells = experiment: in vitro antiproliferation assay, A549 (lung); type: cell-based
In short: as §1

[1] = Table 5, in vitro antiproliferation, H1299 (lung) cells
[2] = Table 5, in vitro antiproliferation, A549 (lung) cells
[3] = Homo sapiens, NCI-H1299, IC50 class against H1299 (lung) tumor cells
[4] = Homo sapiens, IC50 class against A549 (lung) tumor cells
[5] = H1299 (lung) cells, antiproliferation
[6] = A549 (lung) cells, antiproliferation
[7] = H1299 (lung) cells, in vitro antiproliferation
[8] = A549 (lung) cells, in vitro antiproliferation
[9] = IC50 class against H1299 (lung) tumor cells
[10] = IC50 class against A549 (lung) tumor cells
[11] = Homo sapiens, NCI-H1299, H1299 (lung) cells
[12] = Homo sapiens, A549 (lung) cells
[13] = in vitro antiproliferation, H1299 (lung) cells, Table 4, compounds with no designated stereochemistry tested as racemate
[14] = in vitro antiproliferation, A549 (lung) cells, Table 4, compounds with no designated stereochemistry tested as racemate

pIC50 (H1299 cells; [3]): ≥ 4.70
pIC50 (A549 cells; [4]): ≥ 4.70
SMILES: COc1ccc(Nc2ncc(F)c(Nc3cccc(Nc4ncc[nH]4)c3)n2)cc1F [compound 1051]

pIC50 (H1299 cells; H1299 (lung) cells): ≥ 4.70
pIC50 (A549 cells; A549 (lung) cells): ≥ 4.70
SMILES: COc1ccc(Nc2nc(Nc3ccc4cnn(C(C)(C)CC5CC5)c4c3)ncc2F)cc1Cl [compound 1110]

pIC50 (H1299 cells; H1299 (lung) cells): ≥ 4.70
pIC50 (A549 cells; A549 (lung) cells): ≥ 4.70
SMILES: COc1ccc(Nc2nc(Nc3ccc4cnn(C(C)(C)CC5CCCCC5)c4c3)ncc2F)cc1Cl [compound 1094]

pIC50 (H1299 cells; [5]): ≥ 4.70
pIC50 (A549 cells; [6]): ≥ 4.70
SMILES: Fc1cnc(Nc2cccc(-c3ncco3)c2)nc1Nc1cccc(-c2ncco2)c1 [compound 995]

pIC50 (H1299 cells; H1299 (lung) cells): ≥ 4.70
pIC50 (A549 cells; A549 (lung) cells): ≥ 4.70
SMILES: COc1cc(Nc2nc(Nc3ccc4cnn(C(C)(C)CC5CC5)c4c3)ncc2F)ccc1F [compound 1113]

pIC50 (H1299 cells; [9]): ≥ 4.70
pIC50 (A549 cells; [10]): ≥ 4.70
SMILES: Fc1cnc(Nc2cccc(-c3ncco3)c2)nc1Nc1ccc2c(n1)NCCO2 [compound 610]

pIC50 (H1299 cells; [5]): ≥ 4.70
pIC50 (A549 cells; [6]): < 4.70
SMILES: CC(C)c1cccc(Nc2ncc(F)c(Nc3cccc(C(C)C)c3)n2)c1 [compound 968]

pIC50 (H1299 cells; [5]): ≥ 4.70
pIC50 (A549 cells; [6]): ≥ 4.70
SMILES: CNC(=O)c1ccc(Nc2ncc(F)c(Nc3ccc(OC)c(OC)c3)n2)cc1Cl [compound 871]

pIC50 (H1299 cells; [5]): < 4.70
pIC50 (A549 cells; [6]): < 4.70
SMILES: COc1cc(Nc2nc(Nc3ccc(C(N)=O)cc3)ncc2F)ccc1Cl [compound 1032]

pIC50 (H1299 cells; [5]): ≥ 4.70
pIC50 (A549 cells; [6]): ≥ 4.70
SMILES: NC(=O)c1ccc(Nc2ncc(F)c(Nc3ccccc3)n2)cc1 [compound 1036]

pIC50 (H1299 cells; [7]): ≥ 4.70
pIC50 (A549 cells; [8]): ≥ 4.70
SMILES: CCOc1ccc(Nc2ncc(F)c(Nc3ccc(OC)c(OC)c3)n2)cc1 [compound 713]

The next lines start with the compound.

SMILES: Cc1cc(Nc2ncc(F)c(Nc3ccc4c(c3)OCO4)n2)cc(C(F)(F)F)c1 [compound 542]
pIC50 (H1299 cells; [1]): < 4.70
pIC50 (A549 cells; [2]): < 4.70

SMILES: Cc1cc(Nc2ncc(F)c(Nc3cc(C4CC4)[nH]n3)n2)ccc1N1CCN(C)CC1 [compound 213]
pIC50 (H1299 cells; [3]): ≥ 4.70
pIC50 (A549 cells; [4]): ≥ 4.70

SMILES: O=C(COc1cccc(Nc2ncc(F)c(Nc3ccc(N4CCOCC4)cc3)n2)c1)NC1CC1 [compound 988]
pIC50 (H1299 cells; [5]): ≥ 4.70
pIC50 (A549 cells; [6]): ≥ 4.70

SMILES: CNC(=O)COc1cccc(Nc2ncc(F)c(N(C)c3cc(OC)cc(OC)c3)n2)c1 [compound 850]
pIC50 (H1299 cells; [7]): < 4.70
pIC50 (A549 cells; [8]): < 4.70

SMILES: COc1cc(N(C)c2nc(Nc3cc(C)cc(C)c3)ncc2F)ccc1Cl [compound 909]
pIC50 (H1299 cells; [5]): ≥ 4.70
pIC50 (A549 cells; [6]): ≥ 4.70

SMILES: CNC(=O)COc1cccc(Nc2ncc(F)c(Nc3ccc(N4CCN(C(=O)OC)CC4)cc3)n2)c1 [compound 993]
pIC50 (H1299 cells; [5]): ≥ 4.70
pIC50 (A549 cells; [6]): ≥ 4.70

SMILES: Fc1cnc(Nc2cc(-c3ncco3)cc(C(F)(F)F)c2)nc1Nc1cc(-c2ncco2)cc(C(F)(F)F)c1 [compound 892]
pIC50 (H1299 cells; [5]): ≥ 4.70
pIC50 (A549 cells; [6]): ≥ 4.70

SMILES: Cc1cc(Nc2ncc(F)c(Nc3ccc4c(c3)OC(F)(F)O4)n2)cc(C(F)(F)F)c1 [compound 568]
pIC50 (H1299 cells; [1]): ≥ 4.70
pIC50 (A549 cells; [2]): < 4.70

SMILES: CC(=O)N1CCN(c2cccc(Nc3ncc(F)c(N(C)C4CCC4)n3)c2)CC1 [compound 128]
pIC50 (H1299 cells; [9]): ≥ 4.70
pIC50 (A549 cells; [10]): ≥ 4.70

SMILES: COc1cc(C(N)=O)c(Nc2ncc(F)c(N(C)C3CCC3)n2)cc1OC(=O)c1ccccc1 [compound 1162]
pIC50 (H1299 cells; [11]): ≥ 4.70
pIC50 (A549 cells; [12]): ≥ 4.70

SMILES: CNC(=O)COc1c(C)cc(Nc2ncc(F)c(N(C)c3ccc4c(c3)OC(F)(F)C(F)(F)O4)n2)cc1C [compound 574]
pIC50 (H1299 cells; [1]): ≥ 4.70
pIC50 (A549 cells; [2]): ≥ 4.70

SMILES: COc1cc(Nc2ncc(F)c(Nc3ccc4c(c3)OCCO4)n2)cc(C(F)(F)F)c1 [compound 531]
pIC50 (H1299 cells; [1]): ≥ 4.70
pIC50 (A549 cells; [2]): < 4.70

SMILES: Fc1cnc(Nc2cc(Cl)cc(Cl)c2)nc1Nc1ccc2c(c1)OCO2 [compound 543]
pIC50 (H1299 cells; [1]): ≥ 4.70
pIC50 (A549 cells; [2]): ≥ 4.70

SMILES: Cc1cc(C)cc(Nc2ncc(F)c(Nc3ccc4c(c3)NC(=O)C(C)(C)S4(=O)=O)n2)c1 [compound 264]
pIC50 (H1299 cells; [13]): ≥ 4.70
pIC50 (A549 cells; [14]): < 4.70

SMILES: COc1cc(C(N)=O)c(Nc2ncc(F)c(NC3CCCCC3)n2)cc1OC(=O)c1ccccc1 [compound 1164]
pIC50 (H1299 cells; [11]): ≥ 4.70
pIC50 (A549 cells; [12]): ≥ 4.70

SMILES: COc1ccc(Nc2ncc(F)c(N(C)c3ccc4c(c3)NC(=O)C(C)(C)O4)n2)cc1Cl [compound 327]
pIC50 (H1299 cells; [13]): ≥ 4.70
pIC50 (A549 cells; [14]): ≥ 4.70

SMILES: COc1cc(Nc2ncc(F)c(N(C)c3ccc4c(c3)NC(=O)C(C)(C)O4)n2)cc(OC)c1 [compound 323]
pIC50 (H1299 cells; [13]): ≥ 4.70
pIC50 (A549 cells; [14]): ≥ 4.70

SMILES: CC1(C)Oc2ccc(Nc3nc(Nc4ccc5c(cnn5C(C)(C)CC5CCCCC5)c4)ncc3F)cc2NC1=O [compound 1092]
pIC50 (H1299 cells; H1299 (lung) cells): ≥ 4.70
pIC50 (A549 cells; A549 (lung) cells): ≥ 4.70

SMILES: Cc1cc(C)cc(Nc2nc(Nc3cc(Cl)c(Cl)c(Cl)c3)ncc2F)c1 [compound 899]
pIC50 (H1299 cells; [5]): ≥ 4.70
pIC50 (A549 cells; [6]): ≥ 4.70

SMILES: NC(=O)c1ccc(Nc2nc(Nc3cc(Cl)c(O)c(Cl)c3)ncc2F)cc1 [compound 1027]
pIC50 (H1299 cells; [5]): ≥ 4.70
pIC50 (A549 cells; [6]): ≥ 4.70
